Compound: N#CC1(c2ccc(NC(=O)c3cccnc3NCc3ccncc3)cc2)CCCC1 [Apatinib] + N=C(N)NC(=N)NCCc1ccccc1 [Phenformin] (partner 250 µM)
Experiment: relative viability (nuclei count vs DMSO), 5 days (fraction); higher = more cells survive
Details: first compound 8 µM
Method in brief: (§1)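 Lung cancer cell lines in 1536-well plates got either a single drug or a fixed anchor-drug dose together with five library-drug doses (not always all listed) in √10 steps, by pin tool, on the day after seeding. Nuclei were counted after 5 days, and relative viability is the treated-to-vehicle ratio of nuclei counts. Values are medians of duplicate plates.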

| Cell Line | relative viability |
| --- | --- |
| NCI-H2170 | 0.335 |
| NCI-H2228 | 0.301 |

Compound: CN(C)C(=N)NC(=N)N [Metformin] + N=C(N)NC(=N)NCCc1ccccc1 [Phenformin] (partner 250 µM)
Experiment: as above
Details: first compound 10 µM
Method in brief: as §1

| Cell Line | relative viability |
| --- | --- |
| NCI-H522 | 0.716 |
| NCI-H647 | 0.614 |
| NCI-H650 | 0.446 |
| NCI-H661 | 0.284 |
| NCI-H727 | 0.321 |
| NCI-H838 | 0.709 |
| NCI-H1355 | 0.472 |
| NCI-H1395 | 0.448 |
| NCI-H1437 | 0.296 |
| NCI-H1650 | 0.7 |
| NCI-H1651 | 0.42 |
| NCI-H1734 | 0.431 |
| NCI-H1755 | 0.543 |
| NCI-H1792 | 0.412 |
| NCI-H1793 | 0.431 |
| NCI-H1944 | 0.205 |
| NCI-H1975 | 0.422 |
| NCI-H1993 | 0.479 |
| NCI-H2009 | 0.504 |
| NCI-H2023 | 0.396 |
| NCI-H2085 | 0.693 |
| NCI-H2126 | 0.533 |
| NCI-H2170 | 0.369 |
| NCI-H2228 | 0.27 |

Same assay, conditions: first compound 31.62 µM

| Cell Line | relative viability |
| --- | --- |
| NCI-H522 | 0.649 |
| NCI-H647 | 0.58 |
| NCI-H650 | 0.509 |
| NCI-H661 | 0.262 |
| NCI-H727 | 0.707 |
| NCI-H838 | 0.671 |
| NCI-H1355 | 0.412 |
| NCI-H1395 | 0.429 |
| NCI-H1437 | 0.363 |
| NCI-H1650 | 0.548 |
| NCI-H1651 | 0.312 |
| NCI-H1666 | 0.575 |
| NCI-H1734 | 0.447 |
| NCI-H1755 | 0.626 |
| NCI-H1792 | 0.442 |
| NCI-H1915 | 0.357 |
| NCI-H1944 | 0.2 |
| NCI-H1975 | 0.436 |
| NCI-H1993 | 0.481 |
| NCI-H2009 | 0.499 |
| NCI-H2023 | 0.376 |
| NCI-H2085 | 0.729 |
| NCI-H2087 | 0.435 |
| NCI-H2126 | 0.591 |
| NCI-H2170 | 0.434 |
| NCI-H2228 | 0.213 |

Same assay, conditions: first compound 100 µM

| Cell Line | relative viability |
| --- | --- |
| NCI-H522 | 0.713 |
| NCI-H647 | 0.62 |
| NCI-H650 | 0.357 |
| NCI-H661 | 0.264 |
| NCI-H727 | 0.585 |
| NCI-H838 | 0.661 |
| NCI-H1355 | 0.474 |
| NCI-H1395 | 0.525 |
| NCI-H1437 | 0.338 |
| NCI-H1650 | 0.593 |
| NCI-H1651 | 0.371 |
| NCI-H1666 | 0.569 |
| NCI-H1734 | 0.405 |
| NCI-H1755 | 0.639 |
| NCI-H1792 | 0.396 |
| NCI-H1793 | 0.403 |
| NCI-H1915 | 0.384 |
| NCI-H1944 | 0.19 |
| NCI-H1975 | 0.418 |
| NCI-H1993 | 0.514 |
| NCI-H2009 | 0.565 |
| NCI-H2023 | 0.408 |
| NCI-H2085 | 0.722 |
| NCI-H2087 | 0.507 |
| NCI-H2126 | 0.544 |
| NCI-H2170 | 0.444 |
| NCI-H2228 | 0.372 |

Same assay, conditions: first compound 316.23 µM

| Cell Line | relative viability |
| --- | --- |
| NCI-H522 | 0.584 |
| NCI-H647 | 0.521 |
| NCI-H650 | 0.436 |
| NCI-H661 | 0.267 |
| NCI-H838 | 0.667 |
| NCI-H1355 | 0.432 |
| NCI-H1395 | 0.423 |
| NCI-H1437 | 0.343 |
| NCI-H1650 | 0.458 |
| NCI-H1651 | 0.327 |
| NCI-H1666 | 0.499 |
| NCI-H1734 | 0.367 |
| NCI-H1755 | 0.613 |
| NCI-H1792 | 0.462 |
| NCI-H1793 | 0.366 |
| NCI-H1915 | 0.352 |
| NCI-H1944 | 0.169 |
| NCI-H1975 | 0.414 |
| NCI-H1993 | 0.532 |
| NCI-H2009 | 0.412 |
| NCI-H2023 | 0.393 |
| NCI-H2085 | 0.673 |
| NCI-H2087 | 0.398 |
| NCI-H2126 | 0.483 |
| NCI-H2170 | 0.441 |
| NCI-H2228 | 0.275 |

Same assay, conditions: first compound 1000 µM

| Cell Line | relative viability |
| --- | --- |
| NCI-H522 | 0.712 |
| NCI-H647 | 0.653 |
| NCI-H650 | 0.494 |
| NCI-H661 | 0.267 |
| NCI-H727 | 0.573 |
| NCI-H838 | 0.749 |
| NCI-H1355 | 0.47 |
| NCI-H1395 | 0.467 |
| NCI-H1437 | 0.299 |
| NCI-H1650 | 0.476 |
| NCI-H1651 | 0.373 |
| NCI-H1666 | 0.58 |
| NCI-H1734 | 0.379 |
| NCI-H1755 | 0.632 |
| NCI-H1792 | 0.383 |
| NCI-H1793 | 0.562 |
| NCI-H1915 | 0.365 |
| NCI-H1944 | 0.209 |
| NCI-H1975 | 0.404 |
| NCI-H1993 | 0.499 |
| NCI-H2009 | 0.425 |
| NCI-H2023 | 0.354 |
| NCI-H2085 | 0.864 |
| NCI-H2087 | 0.386 |
| NCI-H2126 | 0.515 |
| NCI-H2170 | 0.469 |
| NCI-H2228 | 0.322 |
